pKi: −log10 of the molar value.
What was measured:
[1] = biological target: T1, Aurora A kinase (Homo sapiens, UniProt O14965); test: X-ray crystal structure (Ki by fluorescence anisotropy, from ref […]); format: binding; parameters: gene AURKA; conditions: cited from earlier work
T1 sequence (O14965 1-403): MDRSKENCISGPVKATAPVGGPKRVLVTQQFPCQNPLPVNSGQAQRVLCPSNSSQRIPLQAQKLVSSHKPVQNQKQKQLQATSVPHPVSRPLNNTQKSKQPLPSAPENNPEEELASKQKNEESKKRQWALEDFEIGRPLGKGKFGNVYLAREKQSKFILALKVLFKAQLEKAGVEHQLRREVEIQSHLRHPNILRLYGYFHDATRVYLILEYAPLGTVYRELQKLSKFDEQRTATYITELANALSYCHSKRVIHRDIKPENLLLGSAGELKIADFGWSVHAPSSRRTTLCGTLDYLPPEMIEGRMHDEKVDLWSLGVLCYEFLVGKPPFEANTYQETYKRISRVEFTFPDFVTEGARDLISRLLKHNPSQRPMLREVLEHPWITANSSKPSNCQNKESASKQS

[2] = biological target: T1, Aurora A kinase; test: fluorescence anisotropy competition assay (TPX2 displacement); format: binding; parameters: gene AURKA; with TPX2; conditions: read-out: K i ^b

Row | pKi [2] | SMILES | pKi [1]
1 |  | O=C(O)c1cc(-c2cccc(F)c2)nc2ccccc12 [compound 2] | 4.78
2 | 5.06 | Cc1ccc(-c2cc(C(=O)O)c3ccccc3n2)cc1F [compound 9] | 
3 | 5.64 | Cc1ccc(-c2cc(C(=O)O)c3ccccc3n2)cc1Br [compound 10] | 

Source: PMC5591577, “Computationally-guided optimization of small-molecule inhibitors of the Aurora A kinase–TPX2 protein–protein interaction” (Chemical Communications (Cambridge, England), 2017)
